Experimental data as given in US20090149420A1, “NOVEL COMPOSITIONS AND USE THEREOF FOR THE TREATMENT, CO-TREATMENT OR PREVENTION OF INFLAMMATORY DISORDERS” (priority 2007, published 2009).

Key:
Type in all cases: cell-based
[1] = system: murine macrophage cell line, RAW264.7; experiment: Inhibition of nitric oxide synthesis in LPS-stimulated RAW264.7 macrophages (Griess reaction); conditions: single substance
Description: The anti-inflammatory effect of a mixture of MA/HO (1:3 w/w) in combination with chondroitin sulfate was determined in cellular assays by measuring the inhibition of the synthesis of nitric oxide. Nitric oxide (NO) is a hallmark of inflammation in various chronic inflammatory diseases including various forms of arthritis, gastro-intestinal diseases and metabolic syndrome X.
The effects on the inflammatory response were tested in cellular assays using a murine macrophage cell line, RAW264.7. The cells were purchased from ATCC (Manassas, Va., USA) and cultured in DMEM containing streptomycin/penicillin, non-essential amino acids and 10% fetal calf serum (FCS). In order to test a large range of concentration of a mixture of MA and HO (1:3) as well as mixtures thereof, cells (˜50,000/well) were seeded into flat-bottomed microtiter plates and cultured for one day. […] Concentrations of nitrite which was rapidly formed from nitric oxide released by cells were determined by the Griess reaction using sodium nitrite as standard. Briefly, 50 μl of supernatant was mixed with Griess reagent 1 (25 μL) and Griess reagent 2 (25 μL), centrifuged and the optical density at 540 nm determined. […] IC50 values for LPS-stimulated cells were calculated using a […] least-square fitting equation [y=A+((B−A)/(1+((C−x)̂D))] for best-fit curves (Excel fit software program). […]

Aggrecan = Aggrecan gene expression (mRNA, RT-PCR) in normal human chondrocytes; conditions: 500 mg/L; stim., 4 hrs; control set at 100%
Description: (§1) The effect of a MA/HO (1:3 w/w) mixture in combination with chondroitin was tested on the expression of human aggrecan, collage I, collagen II, or chondrocyte transcription factors (SOX-6, -9) in vitro in normal human chondrocytes (derived from knee) (CC-2550; Cambrex, respectively). A control experiment without the compounds was done concomitantly to compare the expression of these genes (percentage expression of gene in controls was set to 100%). Normal human chondrocytes were cultured for 4 hours with MA/HO (1:3 w/w) (at 12.5 μmol/L), chondroitin (at 500 mg/L) as well as with both. The level of mRNA was determined by RT-PCR (Richard et al. Mol. Nutr. Food Res. 49, 431-442, 2005) and expressed relative to the level observed in cells cultured without the substances. The given values indicate the level of gene expression (in % of unstimulated cells [set at 100%] for anabolic and anti-catabolic genes; in % of IL1β-treated cells [set at 100%], for catabolic genes).

SOX-9 = SOX-9 gene expression (mRNA, RT-PCR) in normal human chondrocytes; conditions: 500 mg/L; % of unstimulated cells set at 100%
Description: as §1

TIMP-1 = TIMP-1 gene expression (mRNA, RT-PCR) in normal human chondrocytes; conditions: 500 mg/L; unstim., 4 d; % of unstimulated cells set at 100%
Description: as §1, with “Normal human chondrocytes were cultured for 4 hours with MA/HO (1:3 w/w) (at 12.5 μmol/L), chondroitin (at 500 mg/L) as well as with both.” left out

MMP-2 = MMP-2 gene expression (mRNA, RT-PCR) in normal human chondrocytes; conditions: 500 mg/L; 4 d; % of IL1β-treated cells set at 100%
Description: as §1, with “Normal human chondrocytes were cultured for 4 hours with MA/HO (1:3 w/w) (at 12.5 μmol/L), chondroitin (at 500 mg/L) as well as with both.” left out

ADAMTS-5 = ADAMTS-5 gene expression (mRNA, RT-PCR) in normal human chondrocytes; conditions: 500 mg/L; stim, 4 hrs; % of IL1β-treated cells set at 100%
Description: as §1

Question: Which “IC50 Nitric Oxide” value ([1]; RAW264.7, LPS 1 μg/ml, 24 hours) does the source give for chondroitin sulfate here?
Answer: >50 µg/mL

Question: What about the “anti-inflammatory activity (inhibition of nitric oxide), in words” value ([1]; RAW264.7, LPS-stimulated) of the same substance?
Answer: marginal anti-inflammatory

Question: And the “Aggrecan gene expression level” value (Aggrecan)?
Answer: 62%

Question: And the “SOX-9 gene expression level” value (SOX-9)?
Answer: 147%

Question: And the “TIMP-1 gene expression level” value (TIMP-1)?
Answer: 106%

Question: What about the “MMP-2 gene expression level” value (MMP-2) of the same substance?
Answer: 93%

Question: What about the “ADAMTS-5 gene expression level” value (ADAMTS-5) of the same substance?
Answer: 107%
